From patent US9603813B2, “Visual performance and/or macular pigmentation” (Howard Foundation Holdings Limited, priority 2011, dated 2017)

What was measured:
[1] = tested on: Bovan Goldline hens; assay: Carotenoid contents of egg yolks from hens fed mixed carotenoids (HPLC)
Description: Eight Bovan Goldline hens were obtained at approximately 18 weeks of age.
When the hens were producing at least 8 eggs per day in total, the hens were isolated and fed only a commercial meal. […] The premix provided 250 mg MZ/kg feed with proportions of L 50, MZ 30, Z 20.
The yolk carotenoids were measured in mixtures prepared from all eggs collected at baseline, three and six weeks.
Yolks were individually weighed and mixed with phosphate-buffered saline and made up to 50 ml. Two ml of each suspension was mixed in a separate universal tube for each of the three batches separately and stored at −40 C.
The egg yolk suspension (0.1 ml) was mixed with 0.15 ml aqueous KOH (25 gl100 mlwater), 0.15 ml absolute ethyl alcohol and 0.1 ml echinenone (internal standard, 0.4 mg/500 ml ethyl alcohol) in a glass extraction tube and incubated at 45 C for 45 minutes.
Solutions were then cooled and mixed vigorously with 1.5 ml hexane (containing BHT500 mg/l) and centrifuged to separate the hexane and aqueous layers. One ml of the upper hexane layer was transferred to an evaporating tube and the residue was re-extracted with 1.5 ml hexane. After centrifuging, 1.5 ml of the upper layer was removed and the extracts combined and evaporated to dryness under nitrogen at 40 C. The residue was made up to 0.15 ml with mobile phase (see Ultracarb HPLC below) and 0.1 ml was injected onto a Ultra Carb Column for HLPC analysis.
Separation and quantitation of the MZ was achieved using a two column procedure.
Ultracarb procedure: Extracts prepared as described above were reconstituted in a mobile phase comprising acetonitrile:methanol (85:15 containing 0.1% triethylamine). Using the same solvent mixture at 1.5 ml/min, extracts were chromatographed isocratically using a 3 micro m Ultracarb ODS column (250×4.6 mm, Phenomenex, UK) and detected using a photodiode-array detector (model 2996, Waters Ltd) to quantify L and Z+MZ at 450 nm. Eluent that coincided with the emergence of MZ+Z was collected from the waste line and evaporated to dryness under nitrogen.
Chiral chromoatography: The Z+MZ extract was then reconstituted in 0.1 ml of hexane:isopropanol (90:10) and 50 uL was chromatographed on a 10 micro m Chiralpak® AD column (250×4.6 mm; Chiral Technologies Europe, 67404 Illkirch Cedex, France) to determine the proportion of MZ and Z isomers using gradient elution at 0.8 ml/min starting with 90% hexane and 10% isopropyl alcohol and increasing to 95% hexane in a linear gradient over 30 minutes.

[2] = Plasma carotenoids in one person consuming one egg per day (HPLC); details: human, in vivo
Description: The objective of this study was to feed hens a mixture of L, MZ and Z to determine the total amount of MZ in the yolk. In addition 24 eggs collected at the end of the experiment were consumed by one subject, one egg/day and the blood MZ composition determined.
Blood (10 ml) from a human subject was collected in lithium heparin tubes at baseline, day 12 and day 24 after consumption of one egg per day and centrifuged to provide plasma subsequently stored at −40 C. Plasma, 0.25 ml was mixed with 0.2 ml sodium dodecyl sulphate, 0.4 ml ethyl acetate (internal standard). Hexane containing BHT (1.0 ml) was added and the mixture extracted vigorously for 4 minutes, centrifuged for 10 mins and 0.7 ml of the upper hexane layer removed and evaporated to dryness.
The residue was made up to 0.1 ml with mobile phase (see HPLC procedure below) and 0.05 ml was injected onto the column.

[3] = feeding 250 ppm of the carotenoid mixture for 3 weeks

concentration at 12 day [2] [nM] | concentration at 24 day [2] [nM] | contents of plasma in one person consuming one egg per day [2] [micro moles per litre] | Compound | contents of egg yolks from chicken fed 250 mg/kg mixed carotenoids ([1]; Weeks 0 (baseline)) [micro grams per yolk] | contents of egg yolks from chicken fed 250 mg/kg mixed carotenoids ([1]; Weeks 3) [micro grams per yolk] | contents of egg yolks from chicken fed 250 mg/kg mixed carotenoids ([1]; Weeks 6) [micro grams per yolk] | share of the yolk carotenoid content [1, 3] | content of egg yolks [1, 3] [mg MZ/yolk]
1200 | 1060 | 0.55 | CC1=C[C@H](O)CC(C)(C)[C@H]1/C=C/C(C)=C/C=C/C(C)=C/C=C/C=C(C)/C=C/C=C(C)/C=C/C1=C(C)C[C@@H](O)CC1(C)C [L, lutein] | 563 | 2100 | 2260 | circa 76% | 
 |  |  | CC1=C(/C=C/C(C)=C/C=C/C(C)=C/C=C/C=C(C)/C=C/C=C(C)/C=C/C2=C(C)C[C@H](O)CC2(C)C)C(C)(C)C[C@H](O)C1 [MZ, (trans, 3R, 3′S meso)-zeaxanthin] | 0 | 315 | 272 | 11% | 2.78
 |  |  | CC1=C(/C=C/C(C)=C/C=C/C(C)=C/C=C/C=C(C)/C=C/C=C(C)/C=C/C2=C(C)C[C@@H](O)CC2(C)C)C(C)(C)C[C@H](O)C1 [Z, zeaxanthin] | 278 | 366 | 328 | 13% | 
